Assay results from patent US9512120B2, “Microbicidally active imidazopyridine derivatives” (Syngenta Participations AG, priority 2013, dated 2016).

What was measured:
Pyrenophora teres = Pyrenophora teres / barley / leaf disc preventative (net blotch); type: in vivo; conditions: foliar, barley leaf segments cv Hasso, inoculated two days after application, assessed 5-7 days after application, read-out: control of Pyrenophora teres (disease control compared to untreated)
Summary of the method: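 Barley cv Hasso leaf segments on agar sprayed with compound at 200 ppm, inoculated with spores two days later. Kept at 20 °C, 65% RH, 12/12 h light; disease control versus untreated scored 5-7 days after application.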

[1] = system: Phaeosphaeria nodorum (Septoria nodorum); test: Phaeosphaeria nodorum (Septoria nodorum) / wheat / leaf disc preventative (glume blotch); type: in vivo; conditions: Parastagonospora nodorum, foliar, wheat leaf segments cv Kanzler, inoculated 2 days after application, assessed 5-7 days after application, read-out: control of Phaeosphaeria nodorum (percent disease control compared to untreated)
Summary of the method: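 Wheat leaf segments (cv Kanzler) on agar sprayed with compound at 200 ppm, inoculated with spores 2 days later. Incubated at 20° C., 75% relative humidity, 12/12 h light/dark; percent disease control versus untreated scored 5-7 days after application.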

[2] = system: Puccinia recondita f. sp. Tritici; test: Puccinia recondita f. sp. tritici / wheat / leaf disc preventative (brown rust); type: in vivo; conditions: foliar, wheat leaf segments cv Kanzler, inoculated 1 day after application, assessed 7-9 days after application, read-out: control of Puccinia recondita f. sp. Tritici (percent disease control compared to untreated)
Summary of the method: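 Leaf segments of wheat cv Kanzler on agar were sprayed with formulated compound at 200 ppm and inoculated with spores 1 day later. Incubation was at 19° C, 75% relative humidity and 12/12 h light/dark. Activity was scored 7-9 days after application as percent disease control versus untreated.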

[3] = system: Glomerella lagenarium (Colletotrichum lagenarium); test: Glomerella lagenarium (Colletotrichum lagenarium) / liquid culture (anthracnose); type: cell-based; conditions: Colletotrichum orbiculare, PDB, 24° C., 3-4 days after application, read-out: control of Glomerella lagenarium (inhibition of growth, photometric)
Summary of the method: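 Cryopreserved conidia suspended in potato dextrose broth were added to compound in DMSO applied at 200 ppm. Plates incubated at 24° C; growth inhibition read photometrically 3-4 days after application.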

[4] = system: Botryotinia fuckeliana (Botrytis cinerea); test: Botryotinia fuckeliana (Botrytis cinerea) / liquid culture (gray mould); type: cell-based; conditions: Vogels broth, 24° C., 3-4 days after application, read-out: control of Botryotinia fuckeliana (inhibition of growth, photometric)
Summary of the method: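 Botrytis cinerea conidia in Vogels broth were added to test compound applied from DMSO at 200 ppm. Incubation at 24 °C; growth inhibition read photometrically 3-4 days after application.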

[5] = system: Thanatephorus cucumeris (Rhizoctonia solani); test: Thanatephorus cucumeris (Rhizoctonia solani) / liquid culture (foot rot, damping-off); type: cell-based; conditions: PDB, 24° C., 3-4 days after application, read-out: control of Thanatephorus cucumeris (inhibition of growth, photometric)
Summary of the method: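 Mycelial fragments in potato dextrose broth exposed to test compounds at 200 ppm (from DMSO solution), incubated at 24° C. Growth inhibition read photometrically 3-4 days after application.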

[6] = system: Puccinia recondita f. sp. Tritici; test: Puccinia recondita f. sp. tritici / wheat / leaf disc curative (brown rust); type: in vivo; conditions: foliar, wheat leaf segments cv Kanzler, applied 1 day after inoculation, assessed 6-8 days after application, read-out: control of Puccinia recondita f. sp. Tritici (percent disease control compared to untreated)
Procedure: Puccinia recondita f. Sp. Tritici/Wheat/Leaf Disc Curative (Brown Rust): Wheat leaf segments cv Kanzler were placed on agar in 24-well plates. The leaf segments were inoculated with a spore suspension of the fungus. The plates were stored in darkness at 19° C. and 75% relative humidity. The formulated test compound diluted in water was applied at an application rate of 200 ppm 1 day after inoculation. […] Tritici at 200 ppm when compared to untreated control leaf disks under the same conditions, which show extensive disease development: 2, 13, 16, 23, 30, 61, 75, 89, 103, 173, 174

Sclerotinia sclerotiorum = Sclerotinia sclerotiorum liquid culture (cottony rot / white mold); type: cell-based; conditions: PDB, 24° C., 3-4 days after application, read-out: control of Sclerotinia sclerotiorum (inhibition of growth, photometric)
Summary of the method: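 Mycelia fragments of Sclerotinia sclerotiorum in potato dextrose broth were added to compound in DMSO. Cultures incubated at 24° C; growth inhibition determined photometrically 3-4 days after application.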

[7] = system: Blumeria graminis f. Sp. Tritici (Erysiphe graminis f. Sp. Tritici); test: Blumeria graminis f. sp. tritici / wheat / leaf disc preventative (powdery mildew on wheat); type: in vivo; conditions: foliar, wheat leaf segments cv. Kanzler, inoculated 1 day after application, assessed 6-8 days after application, read-out: control of Blumeria graminis (percent disease control compared to untreated)
Summary of the method: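 Wheat leaf segments (cv. Kanzler) on agar sprayed with formulated compound at 200 ppm, inoculated with powdery mildew 1 day later. Held at 20 °C, 60% RH, 24 h dark then 12 h/12 h light; percent disease control versus untreated scored 6-8 days after application.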

[8] = system: Fusarium graminearum, syn. Gibberella zeae; test: whole plant or invertebrate; type: in vivo; conditions: in Triticum aestivum, 144 h, read-out: control of Gibberella zeae (preventative fungicidal activity)
[9] = system: Mycosphaerella graminicola (Septoria tritici); test: Mycosphaerella graminicola (Septoria tritici) / liquid culture (Septoria blotch); type: cell-based; conditions: Zymoseptoria tritici, PDB, 24° C., 4-5 days after application, read-out: control of Mycosphaerella graminicola (inhibition of growth, photometric)
Summary of the method: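 Cryo-stored conidia in potato dextrose broth were added to compound in DMSO at 200 ppm in microtiter plates. Plates were incubated at 24 °C and growth inhibition was measured photometrically 4–5 days after application.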

Gaeumannomyces graminis = Gaeumannomyces graminis / liquid culture (take-all of cereals); type: cell-based; conditions: PDB, 24° C., 4-5 days after application, read-out: control of Gaeumannomyces graminis (inhibition of growth, photometric)
Summary of the method: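 Mycelial fragments in potato dextrose broth were exposed to compound from DMSO at 200 ppm in microtiter plates. Incubation at 24 °C; growth inhibition read photometrically 4-5 days after application.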

[10] = system: Mycosphaerella arachidis (Cercospora arachidicola); test: Mycosphaerella arachidis (Cercospora arachidicola) / liquid culture (early leaf spot); type: cell-based; conditions: PDB, 24° C., 4-5 days after application, read-out: control of Mycosphaerella arachidis (inhibition of growth, photometric)
Summary of the method: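 Conidia suspended in potato dextrose broth and added to test compound from DMSO solution at 200 ppm. Incubated at 24 °C; growth inhibition read photometrically 4-5 days after application.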

Fusarium culmorum = test: microbe, parasite or virus in culture; type: cell-based; conditions: read-out: control of Fusarium culmorum (inhibition of growth, photometric)
Pythium ultimum = Pythium ultimum / liquid culture (seedling damping off); type: cell-based; conditions: Globisporangium ultimum, potato dextrose broth, 24° C., 2-3 days after application, read-out: control of Pythium ultimum (inhibition of growth, photometric)
Summary of the method: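 Test compound in DMSO at 200 ppm was incubated with mycelia fragments and oospores in potato dextrose broth at 24 °C. Growth inhibition was read photometrically 2-3 days after application.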

Plasmopara viticola = Plasmopara viticola / grape / leaf disc preventative; type: in vivo; conditions: foliar, grape vine leaf disks, inoculated 1 day after application, assessed 6-8 days after application, read-out: control of Plasmopara viticola (percent disease control compared to untreated)
[11] = system: Monographella nivalis (Microdochium nivale); test: Monographella nivalis (Microdochium nivale) / liquid culture (foot rot cereals); type: cell-based; conditions: PDB, 24° C., 4-5 days after application, read-out: control of Monographella nivalis (inhibition of growth, photometric)
Summary of the method: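 Cryostored conidia in potato dextrose broth were added to test compound dispensed from DMSO at 200 ppm. Plates were kept at 24° C, and growth inhibition was read photometrically 4-5 days after application.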

CCn1c(-n2ncnc2N)nc2cncc(-c3ccc(C(F)(F)F)cc3)c21 [Compound 30, 2-[1-ethyl-7-[4-(trifluoromethyl)phenyl]imidazo[4,5-c]pyridin-2-yl]-1,2,4-triazol-3-amine]
pest or weed control at 200 ppm (Pyrenophora teres): ≥ 80%
pest or weed control at 200 ppm [1]: ≥ 80%
pest or weed control at 200 ppm [2]: ≥ 80%
inhibition at 20 ppm [3]: ≥ 80%
inhibition at 20 ppm [4]: ≥ 80%
inhibition at 20 ppm [5]: ≥ 80%
pest or weed control at 200 ppm [6]: ≥ 80%
inhibition at 20 ppm (Sclerotinia sclerotiorum): ≥ 80%

Nc1ncnn1-c1nc2cnccc2n1C1CCCCC1 [Compound 2, 2-(1-cyclohexylimidazo[4,5-c]pyridin-2-yl)-1,2,4-triazol-3-amine]
pest or weed control at 200 ppm (Pyrenophora teres): ≥ 80%
pest or weed control at 200 ppm [7]: ≥ 80%
pest or weed control at 20 ppm [8]: ≥ 80%
pest or weed control at 200 ppm [2]: ≥ 80%
inhibition at 20 ppm [9]: ≥ 80%
inhibition at 20 ppm (Gaeumannomyces graminis): ≥ 80%
inhibition at 20 ppm [4]: ≥ 80%
inhibition at 20 ppm [5]: ≥ 80%
pest or weed control at 200 ppm [6]: ≥ 80%

CCn1c(-n2ncnc2N)nc2cncc(-c3ccccc3F)c21 [Compound 79, 2-[1-ethyl-7-(2-fluorophenyl)imidazo[4,5-c]pyridin-2-yl]-1,2,4-triazol-3-amine]
pest or weed control at 200 ppm (Pyrenophora teres): ≥ 80%
pest or weed control at 200 ppm [1]: ≥ 80%
inhibition at 20 ppm [10]: ≥ 80%
inhibition at 20 ppm (Fusarium culmorum): ≥ 80%
pest or weed control at 200 ppm [2]: ≥ 80%
inhibition at 20 ppm [9]: ≥ 80%
inhibition at 20 ppm [3]: ≥ 80%
inhibition at 20 ppm (Gaeumannomyces graminis): ≥ 80%
inhibition at 20 ppm [4]: ≥ 80%
inhibition at 20 ppm (Pythium ultimum): ≥ 80%
pest or weed control at 200 ppm (Plasmopara viticola): ≥ 80%
inhibition at 20 ppm [11]: ≥ 80%
inhibition at 20 ppm [5]: ≥ 80%
inhibition at 20 ppm (Sclerotinia sclerotiorum): ≥ 80%

CCn1c(-n2ncnc2N)nc2cncc(-c3ccc(Cl)cc3F)c21 [Compound 98, 2-[7-(4-chloro-2-fluorophenyl)-1-ethylimidazo[4,5-c]pyridin-2-yl]-1,2,4-triazol-3-amine]
pest or weed control at 200 ppm (Pyrenophora teres): ≥ 80%
pest or weed control at 200 ppm [1]: ≥ 80%
inhibition at 20 ppm [10]: ≥ 80%
inhibition at 20 ppm (Fusarium culmorum): ≥ 80%
pest or weed control at 20 ppm [8]: ≥ 80%
pest or weed control at 200 ppm [2]: ≥ 80%
inhibition at 20 ppm [9]: ≥ 80%
inhibition at 20 ppm [3]: ≥ 80%
inhibition at 20 ppm (Gaeumannomyces graminis): ≥ 80%
inhibition at 20 ppm [4]: ≥ 80%
inhibition at 20 ppm [11]: ≥ 80%
inhibition at 20 ppm [5]: ≥ 80%
inhibition at 20 ppm (Sclerotinia sclerotiorum): ≥ 80%

CCn1c(-n2ncnc2N)nc2cncc(-c3cccnc3Cl)c21 [Compound 103, 2-[7-(2-chloropyridin-3-yl)-1-ethylimidazo[4,5-c]pyridin-2-yl]-1,2,4-triazol-3-amine]
pest or weed control at 200 ppm (Pyrenophora teres): ≥ 80%
pest or weed control at 200 ppm [1]: ≥ 80%
pest or weed control at 200 ppm [7]: ≥ 80%
pest or weed control at 200 ppm [2]: ≥ 80%
inhibition at 20 ppm [9]: ≥ 80%
inhibition at 20 ppm [3]: ≥ 80%
inhibition at 20 ppm (Gaeumannomyces graminis): ≥ 80%
inhibition at 20 ppm [4]: ≥ 80%
inhibition at 20 ppm [11]: ≥ 80%
inhibition at 20 ppm [5]: ≥ 80%
pest or weed control at 200 ppm [6]: ≥ 80%

CC=Cn1c(-n2ncnc2N)nc2cnccc21 [Compound 16, 2-(1-prop-1-enylimidazo[4,5-c]pyridin-2-yl)-1,2,4-triazol-3-amine]
pest or weed control at 200 ppm (Pyrenophora teres): ≥ 80%
melting point: 199 to 200 °C
inhibition at 20 ppm (Gaeumannomyces graminis): ≥ 80%
inhibition at 20 ppm [4]: ≥ 80%
inhibition at 20 ppm [5]: ≥ 80%
pest or weed control at 200 ppm [6]: ≥ 80%

CCn1c(-n2ncnc2N)nc2cncc(-c3cnn(C)c3)c21 [Compound 61, 2-[1-ethyl-7-(1-methylpyrazol-4-yl)imidazo[4,5-c]pyridin-2-yl]-1,2,4-triazol-3-amine]
pest or weed control at 200 ppm (Pyrenophora teres): ≥ 80%
pest or weed control at 200 ppm [1]: ≥ 80%
pest or weed control at 200 ppm [7]: ≥ 80%
pest or weed control at 200 ppm [2]: ≥ 80%
inhibition at 20 ppm [9]: ≥ 80%
inhibition at 20 ppm [4]: ≥ 80%
inhibition at 20 ppm [5]: ≥ 80%
pest or weed control at 200 ppm [6]: ≥ 80%

CCn1c(-n2ncnc2N)nc2cncc(/C(C)=N\OC/C=C/Cl)c21 [Compound 149]
pest or weed control at 200 ppm (Pyrenophora teres): ≥ 80%
pest or weed control at 200 ppm [1]: ≥ 80%
inhibition at 20 ppm [10]: ≥ 80%
inhibition at 20 ppm (Fusarium culmorum): ≥ 80%
pest or weed control at 20 ppm [8]: ≥ 80%
pest or weed control at 200 ppm [2]: ≥ 80%
inhibition at 20 ppm [9]: ≥ 80%
inhibition at 20 ppm [3]: ≥ 80%
inhibition at 20 ppm [4]: ≥ 80%
inhibition at 20 ppm (Pythium ultimum): ≥ 80%
pest or weed control at 200 ppm (Plasmopara viticola): ≥ 80%
inhibition at 20 ppm [11]: ≥ 80%
inhibition at 20 ppm [5]: ≥ 80%
inhibition at 20 ppm (Sclerotinia sclerotiorum): ≥ 80%
